From patent US12077503B2, “Substituted cyclic amides and their use as herbicides” (FMC CORPORATION, priority 2015, dated 2024)

Tests used:
Test in all cases: Test A postemergence
Format in all cases: in vivo
[1] = test system: Galium (catchweed bedstraw, Galium aparine); conditions: Galium, post-emergence, 240 h, 125 g ai/ha, postemergence; visual injury after approximately 10 d; 0 to 100 scale (0 no effect, 100 complete control); read-out: Plant response rating, Galium
Summary of the method: (§1)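 Compounds were formulated in a non-phytotoxic solvent mixture with surfactant and applied as a preemergence directed soil spray after seeding, or sprayed postemergence over plants 2 to 10 cm tall at the one- to two-leaf stage. Evaluation after about 10 d compared treated with untreated controls, using a scale from 0 (no effect) to 100 (complete control).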

corn (Zea mays) = conditions: Zea mays, post-emergence, 240 h, 125 g ai/ha, postemergence; visual injury after approximately 10 d; 0 to 100 scale (0 no effect, 100 complete control)
Summary of the method: as §1

[2] = test system: pigweed (Amaranthus retroflexus); conditions: Amaranthus retroflexus, post-emergence, 240 h, 125 g ai/ha, postemergence; visual injury after approximately 10 d; 0 to 100 scale (0 no effect, 100 complete control); read-out: Plant response rating, Pigweed
Summary of the method: as §1

[3] = test system: ryegrass, Italian (Italian ryegrass, Lolium multiflorum); conditions: Lolium multiflorum, post-emergence, 240 h, 125 g ai/ha, postemergence; visual injury after approximately 10 d; 0 to 100 scale (0 no effect, 100 complete control); read-out: Plant response rating, Ryegrass, Italian
Summary of the method: as §1

[4] = test system: wheat (Triticum aestivum); conditions: Triticum aestivum, post-emergence, 240 h, 125 g ai/ha, postemergence; visual injury after approximately 10 d; 0 to 100 scale (0 no effect, 100 complete control); read-out: Plant response rating, Wheat
Summary of the method: as §1

| SMILES | pest or weed control at 125 g/ha [1] | Corn plant response rating (crop injury, 0 = no effect, 100 = complete kill) at 125 g/ha (corn (Zea mays)) | pest or weed control at 125 g/ha [2] | pest or weed control at 125 g/ha [3] | plant injury at 125 g/ha [4] |
| --- | --- | --- | --- | --- | --- |
| C=CCN1C[C@H](c2ccc(OC)c(F)c2)[C@@H](C(=O)Nc2ccccc2C(F)(F)F)C1=O [Compound 723] | 0% | 0% | 0% | 0% | 0% |
| O=C1NC[C@H](c2ccc3c(c2)OCO3)[C@H]1C(=O)Nc1cccc(F)c1F [Compound 731] | 20% | 0% | 0% | 0% | 0% |
| Cc1ccc([C@H]2CN(C)C(=O)[C@@H]2C(=O)Nc2cccc(F)c2C)cc1C [Compound 732] | 30% | 70% | 0% | 50% | 80% |
| CCc1cc(CC)cc([C@H]2CN(C)C(=O)[C@@H]2C(=O)Nc2ccccc2C(F)(F)F)c1 [Compound 737] | 30% | 40% | 20% | 50% | 40% |
| O=C1NC[C@H](c2ccc(C(F)(F)F)cc2)[C@H]1C(=O)Nc1ccccc1C1CC1 [Compound 746] | 50% | 0% | 0% | 0% | 0% |
| CN1C[C@H](c2ccc(C(F)(F)F)cc2)[C@@H](C(=O)Nc2ccccc2C2CC2)C1=O [Compound 747] | 60% | 0% | 30% | 0% | 0% |
| O=C1NC[C@H](c2cccc(C(F)(F)F)c2)[C@H]1C(=O)Nc1ccccc1C1CC1 [Compound 748] | 0% | 0% | 0% | 0% | 0% |
| O=C1NC[C@H](c2cscn2)[C@H]1C(=O)Nc1ccccc1F [Compound 752] | 70% | 0% | 0% | 20% | 0% |
| O=C1NC[C@H](c2cccc3c2OC(F)(F)O3)[C@H]1C(=O)Nc1ccccc1F [Compound 754] | 0% | 0% | 0% | 0% | 0% |
| O=C1NC[C@H](c2cc(F)c(F)c(F)c2)[C@H]1C(=O)Nc1ccc(F)c(F)c1F [Compound 756] | 50% | 50% | 0% | 40% | 30% |
| CN1C[C@H](c2cc(F)c(F)c(F)c2)[C@@H](C(=O)Nc2ccc(F)c(F)c2F)C1=O [Compound 757] | 50% | 70% | 20% | 20% | 60% |
| CN1C[C@H](c2cc(F)cc(F)c2)[C@@H](C(=O)Nc2ccc(F)cc2C(F)(F)F)C1=O [Compound 758] | 40% | 20% | 0% | 0% | 0% |
